# Measured values as given in ChEMBL document CHEMBL3124930, “Synthesis of novel 5-(3-alkylquinolin-2-yl)-3-aryl isoxazole derivatives and their cytotoxic activity” (Bioorg Med Chem Lett, 2014).
# Assays:
# Format in all cases: functional, cell-based
# MDA-MB-231 = assay: Cytotoxicity against human MDA-MB-231 cells assessed as growth inhibition after 24 hrs by MTT assay; conditions: MDA-MB-231, 24 h
# PC-3 = assay: Cytotoxicity against human PC3 cells assessed as growth inhibition after 24 hrs by MTT assay; conditions: PC-3, 24 h
# COLO 205 = assay: Cytotoxicity against human COLO205 cells assessed as growth inhibition after 24 hrs by MTT assay; conditions: COLO 205, 24 h
# A549 = assay: Cytotoxicity against human A549 cells assessed as growth inhibition after 24 hrs by MTT assay; conditions: A549, 24 h
Compound,IC50 (MDA-MB-231) [µM],IC50 (PC-3) [µM],IC50 (COLO 205) [µM],IC50 (A549) [µM]
Cc1ccc(-c2cc(/C=N/c3ccccc3)on2)cc1,29.4,31.6,28.9,32
C(=N\c1ccccc1)/c1cc(-c2ccccc2)no1,> 100,> 100,89.1,48.1
Fc1ccc(-c2cc(/C=N/c3ccccc3)on2)cc1,41.2,36.5,33.1,34.5
FC(F)(F)c1ccc(-c2cc(/C=N/c3ccccc3)on2)cc1,37.4,35.7,41.3,38.9
CCc1cc2ccccc2nc1-c1cc(-c2ccccc2)no1,> 100,> 100,> 100,> 100
CCCc1cc2ccccc2nc1-c1cc(-c2ccccc2)no1,47.2,51.3,48.9,52.5
CCCCc1cc2ccccc2nc1-c1cc(-c2ccccc2)no1,> 100,> 100,> 100,> 100
CCCCCc1cc2ccccc2nc1-c1cc(-c2ccccc2)no1,> 100,> 100,> 100,92.3
CCc1cc2ccccc2nc1-c1cc(-c2ccc(F)cc2)no1,> 100,> 100,> 100,> 100
CCCc1cc2ccccc2nc1-c1cc(-c2ccc(F)cc2)no1,48.4,42.2,50.3,51.3
CCCCc1cc2ccccc2nc1-c1cc(-c2ccc(F)cc2)no1,24.2,26.3,25.3,27.5
CCc1cc2ccccc2nc1-c1cc(-c2ccc(C)cc2)no1,> 100,> 100,> 100,> 100
CCCc1cc2ccccc2nc1-c1cc(-c2ccc(C)cc2)no1,> 100,> 100,> 100,> 100
CCCCc1cc2ccccc2nc1-c1cc(-c2ccc(C)cc2)no1,> 100,> 100,> 100,> 100
CCCCCc1cc2ccccc2nc1-c1cc(-c2ccc(C)cc2)no1,> 100,> 100,> 100,> 100
CCc1cc2ccccc2nc1-c1cc(-c2ccc(C(F)(F)F)cc2)no1,> 100,> 100,> 100,> 100
CCCc1cc2ccccc2nc1-c1cc(-c2ccc(C(F)(F)F)cc2)no1,36.5,33.8,42.2,43.9
CCCCc1cc2ccccc2nc1-c1cc(-c2ccc(C(F)(F)F)cc2)no1,10.4,10.8,11.9,9.4
CCCCCc1cc2ccccc2nc1-c1cc(-c2ccc(C(F)(F)F)cc2)no1,22.1,30.2,24.5,28.3
COc1cccc2c1C(=O)c1c(O)c3c(c(O)c1C2=O)C[C@@](O)(C(=O)CO)C[C@@H]3O[C@H]1C[C@H](N)[C@H](O)[C@H](C)O1 [DOXORUBICIN],0.8,0.6,0.7,–
